From patent US10590140B2, “Tetrahydropyrimidodiazepine and dihydropyridodiazepine compounds for treating pain and pain related conditions” (ESTEVE PHARMACEUTICALS, S.A., priority 2016, dated 2020)

What follows are compounds tested against human α2δ-1 subunit of Cav2.2 calcium channel (Homo sapiens (Human), UniProt P54289) (assay: Binding assay to human α2δ-1 subunit of Cav2.2 calcium channel ([3H]-Gabapentin)). Details: binding to α2δ-1, [3H]-Gabapentin; read-out: Ki (nM) α2δ-1.
Description: Binding Assay to Human α2δ-1 Subunit of Cav2.2 Calcium Channel.
NSB (non specific binding) was measured by adding 10 μM pregabalin. After 60 min incubation at 27° C., binding reaction was terminated by filtering through Multiscreen GF/C (Millipore) presoaked in 0.5% polyethyleneimine in Vacuum Manifold Station, followed by 3 washes with ice-cold filtration buffer containing 50 mM Tris-HCl, pH 7.4.
Filter plates were dried at 60° C. for 1 hour and 30 μl of scintillation cocktail were added to each well before radioactivity reading.

Sequence of human α2δ-1 subunit of Cav2.2 calcium channel (P54289 25-1103): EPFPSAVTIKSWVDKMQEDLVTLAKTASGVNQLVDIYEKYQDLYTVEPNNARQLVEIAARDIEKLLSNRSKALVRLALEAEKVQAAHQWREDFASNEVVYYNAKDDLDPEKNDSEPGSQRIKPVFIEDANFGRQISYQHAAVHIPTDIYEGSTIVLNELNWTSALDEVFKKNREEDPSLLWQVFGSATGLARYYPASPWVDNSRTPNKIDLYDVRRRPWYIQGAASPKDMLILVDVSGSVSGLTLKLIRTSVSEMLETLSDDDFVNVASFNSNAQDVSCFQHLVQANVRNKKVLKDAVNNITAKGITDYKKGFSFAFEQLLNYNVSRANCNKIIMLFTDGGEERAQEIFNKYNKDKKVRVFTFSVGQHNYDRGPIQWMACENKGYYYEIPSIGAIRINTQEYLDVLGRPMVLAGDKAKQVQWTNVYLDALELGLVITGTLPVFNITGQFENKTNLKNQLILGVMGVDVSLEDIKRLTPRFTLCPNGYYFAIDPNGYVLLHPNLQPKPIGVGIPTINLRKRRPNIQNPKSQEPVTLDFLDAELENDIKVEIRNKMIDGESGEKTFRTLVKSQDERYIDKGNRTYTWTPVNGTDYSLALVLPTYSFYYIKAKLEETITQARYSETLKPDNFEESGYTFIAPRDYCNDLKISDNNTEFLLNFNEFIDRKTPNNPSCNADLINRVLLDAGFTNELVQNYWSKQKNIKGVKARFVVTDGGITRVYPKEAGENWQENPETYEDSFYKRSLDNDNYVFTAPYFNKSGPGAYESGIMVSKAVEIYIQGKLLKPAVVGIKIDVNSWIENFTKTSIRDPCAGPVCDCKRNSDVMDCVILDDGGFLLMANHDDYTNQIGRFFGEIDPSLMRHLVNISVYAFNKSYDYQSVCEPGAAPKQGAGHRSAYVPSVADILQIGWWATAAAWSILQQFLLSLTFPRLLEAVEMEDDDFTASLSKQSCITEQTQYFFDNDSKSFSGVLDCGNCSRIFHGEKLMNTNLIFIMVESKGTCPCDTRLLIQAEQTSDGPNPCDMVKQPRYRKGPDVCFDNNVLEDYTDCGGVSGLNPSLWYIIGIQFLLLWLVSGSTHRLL

Q: How did the Ki turn out when `CCNc1ncc2c(n1)N(C)CCN(c1cccc(-n3cc(CN4CCC(c5ccccc5)(N(C)C)CC4)nn3)c1)C2=O` [Example 291, 6-(3-(4-((4-(dimethylamino)-4-phenylpiperidin-1-yl)methyl)-1H-1,2,3-triazol-1-yl)phenyl)-2-(ethylamino)-9-methyl-6,7,8,9-tetrahydro-5H-pyrimido[4,5-e] [1,4]diazepin-5-one] was run?
A: The Ki was 100 to 500 nM.

Q: With `CCNc1ncc2c(n1)N(C)CCN(Cc1cccc(OC)c1)C2` [Example 67, N-ethyl-6-(3-methoxybenzyl)-9-methyl-6,7,8,9-tetrahydro-5H-pyrimido[4,5-e][1,4]diazepin-2-amine] as the compound, how does the Ki read?
A: Its Ki is > 3000 nM.

Q: How did the Ki turn out when `CNCC[C@H](Oc1ccc(CN2CCN(C)c3nc(OC)ncc3C2=O)cc1C)c1cccs1` [Example 393, (S)-2-methoxy-9-methyl-6-(3-methyl-4-(3-(methylamino)-1-(thiophen-2-yl)propoxy)benzyl)-6,7,8,9-tetrahydro-5H-pyrimido[4,5-e][1,4]diazepin-5-one] was run?
A: Its Ki is 100 to 500 nM.

Q: For `CCNc1ncc2c(n1)N(C)CCN(c1cccc(O[Si](C)(C)C(C)(C)C)c1)C2=O` [Example 111, 6-(3-((tert-butyldimethylsilyl)oxy)phenyl)-2-(ethylamino)-9-methyl-6,7,8,9-tetrahydro-5H-pyrimido[4,5-e][1,4]diazepin-5-one], which Ki is on record?
A: The Ki was > 3000 nM.

Q: Which Ki does the source give for `CSc1ncc2c(n1)N(C)CCN(c1cccc(OC(CCN(C)C(=O)OC(C)(C)C)c3ccccc3)c1)C2=O` (stereo not shown) [Example 1, tert-Butyl methyl(3-(3-(9-methyl-2-(methylthio)-5-oxo-5,7,8,9-tetrahydro-6H-pyrimido[4,5-e][1,4]diazepin-6-yl)phenoxy)-3-phenylpropyl) carbamate] here?
A: The Ki was > 3000 nM.

Q: Which Ki does the source give for `CCNc1ncc2c(n1)N(C)CCN(c1cccc(-n3cc(CN4CCC(c5ccccc5)(N(C)C)CC4)cn3)c1)C2=O` [Example 294, 6-(3-(4-((4-(dimethylamino)-4-phenylpiperidin-1-yl)methyl)-1H-pyrazol-1-yl)phenyl)-2-(ethylamino)-9-methyl-6,7,8,9-tetrahydro-5H-pyrimido[4,5-e] [1,4]diazepin-5-one] here?
A: Its Ki is 500 to 3000 nM.

Q: How did the Ki turn out when `CCNc1ncc2c(n1)N(C)CCN(c1cccc(O[C@@H](CCN(C)C(=O)OC(C)(C)C)c3cccs3)c1)C2=O` [Example 82, tert-butyl (S)-(3-(3-(2-(ethylamino)-9-methyl-5-oxo-5,7,8,9-tetrahydro-6H-pyrimido[4,5-e][1,4]diazepin-6-yl)phenoxy)-3-(thiophen-2-yl)propyl)(methyl) carbamate] was run?
A: Its Ki is > 3000 nM.

Q: `CSc1ncc2c(n1)N(C)CCN(Cc1cccc(OC(CN(C)C(=O)OC(C)(C)C)c3ccccc3)c1)C2=O` (stereo not shown) [Example 62, tert-Butyl methyl(2-(3-((9-methyl-2-(methylthio)-5-oxo-5,7,8,9-tetrahydro-6H-pyrimido[4,5-e][1,4]diazepin-6-yl)methyl)phenoxy)-2-phenylethyl) carbamate] was tested. Which Ki did it give?
A: The Ki was > 3000 nM.

Q: Which Ki does the source give for `CSc1ncc2c(n1)N(C)CCN(c1cccc(COC3(c4ccccc4)CCN(C(=O)OC(C)(C)C)CC3)c1)C2=O` [Example 28, tert-butyl 4-((3-(9-methyl-2-(methylthio)-5-oxo-5,7,8,9-tetrahydro-6H-pyrimido[4,5-e][1,4]diazepin-6-yl)benzyl)oxy)-4-phenylpiperidine-1-carboxylate] here?
A: Its Ki is > 3000 nM.

Q: `CCNc1ncc2c(n1)N(C)CCN(c1cccc(-n3cnc(CN4CCC(c5cccc(O)c5)(N(C)C)CC4)c3)c1)C2=O` [Example 296, 6-(3-(4-((4-(dimethylamino)-4-(3-hydroxyphenyl)piperidin-1-yl)methyl)-1H-imidazol-1-yl)phenyl)-2-(ethylamino)-9-methyl-6,7,8,9-tetrahydro-5H-pyrimido[4,5-e][1,4]diazepin-5-one] was tested. Which Ki did it give?
A: Its Ki is 500 to 3000 nM.

Q: For `CSc1ncc2c(n1)N(C)CCN(c1cccc(Cn3cc(CN(C)C(=O)OC(C)(C)C)nn3)c1)C2=O` [Example 44, tert-butyl methyl((1-(3-(9-methyl-2-(methylthio)-5-oxo-5,7,8,9-tetrahydro-6H-pyrimido[4,5-e][1,4]diazepin-6-yl)benzyl)-1H-1,2,3-triazol-4-yl)methyl) carbamate], which Ki is on record?
A: Its Ki is > 3000 nM.

Q: For `CCNc1ncc2c(n1)N(C)CCN(Cc1cccc(OC(CN(C)C(=O)OC(C)(C)C)c3ccccc3)c1)C2=O` (stereo not shown) [Example 135, tert-butyl (2-(3-((2-(ethylamino)-9-methyl-5-oxo-5,7,8,9-tetrahydro-6H-pyrimido[4,5-e][1,4]diazepin-6-yl)methyl)phenoxy)-2-phenylethyl)(methyl) carbamate], which Ki is on record?
A: The Ki was > 3000 nM.

Q: Which Ki does the source give for `CNCC[C@H](Oc1ccc(CN2CCN(C)c3ccncc3C2=O)cc1)c1ccccc1` [Example 377, (S)-1-methyl-4-(4-(3-(methylamino)-1-phenylpropoxy)benzyl)-1,2,3,4-tetrahydro-5H-pyrido[4,3-e][1,4]diazepin-5-one] here?
A: Its Ki is 500 to 3000 nM.

Q: How did the Ki turn out when `Cc1nnc(-c2cccc(N3CCN(C)c4nc(N(C)Cc5ccccc5)ncc4C3=O)c2)o1` [Example 104, 2-(benzyl(methyl)amino)-9-methyl-6-(3-(5-methyl-1,3,4-oxadiazol-2-yl)phenyl)-6,7,8,9-tetrahydro-5H-pyrimido[4,5-e][1,4]diazepin-5-one] was run?
A: The Ki was > 3000 nM.

Q: How did the Ki turn out when `CSc1ncc2c(n1)N(C)CCN(c1cccc(OC(CCN(C)C(=O)OCC[Si](C)(C)C)c3cccs3)c1)C2=O` (stereo not shown) [Example 51, 2-(trimethyl-silyl)ethyl methyl(3-(3-(9-methyl-2-(methylthio)-5-oxo-5,7,8,9-tetrahydro-6H-pyrimido[4,5-e][1,4]diazepin-6-yl)phenoxy)-3-(thiophen-2-yl)propyl) carbamate] was run?
A: Its Ki is > 3000 nM.

Q: Which Ki does the source give for `CCNc1ncc2c(n1)N(C)CCN(c1cccc(COC(C)CCNC)c1)C2=O` (stereo not shown) [Example 191, 2-(ethylamino)-9-methyl-6-(3-(((4-(methylamino)butan-2-yl)oxy)methyl)phenyl)-6,7,8,9-tetrahydro-5H-pyrimido[4,5-e][1,4]diazepin-5-one] here?
A: Its Ki is 500 to 3000 nM.

Q: `Cc1ncc2c(n1)N(C)CCN(c1cccc(COC(CCN(C)C(=O)OC(C)(C)C)c3cccs3)c1)C2=O` (stereo not shown) [Example 143, tert-butyl (3-((3-(2,9-dimethyl-5-oxo-5,7,8,9-tetrahydro-6H-pyrimido[4,5-e][1,4]diazepin-6-yl)benzyl)oxy)-3-(thiophen-2-yl)propyl)(methyl) carbamate] was tested. Which Ki did it give?
A: Its Ki is > 3000 nM.

Q: How did the Ki turn out when `CCNc1ncc2c(n1)N(C)CCN(Cc1ccccc1COC(CNC)c1ccccc1)C2=O` (stereo not shown) [Example 412, 2-(ethylamino)-9-methyl-6-(2-((2-(methylamino)-1-phenylethoxy)methyl)benzyl)-6,7,8,9-tetrahydro-5H-pyrimido[4,5-e][1,4]diazepin-5-one] was run?
A: The Ki was > 3000 nM.

Q: For `CNCC(OCc1ccccc1CN1CCN(C)c2nc(C)ncc2C1=O)c1ccccc1` (stereo not shown) [Example 424, 2,9-dimethyl-6-(2-((2-(methylamino)-1-phenylethoxy)methyl)benzyl)-6,7,8,9-tetrahydro-5H-pyrimido[4,5-e][1,4]diazepin-5-one], which Ki is on record?
A: Its Ki is > 3000 nM.

Q: For `CCNc1ncc2c(n1)N(C)CCN(c1cccc(-c3noc(C)n3)c1)C2=O` [Example 108, 2-(ethylamino)-9-methyl-6-(3-(5-methyl-1,2,4-oxadiazol-3-yl)phenyl)-6,7,8,9-tetrahydro-5H-pyrimido[4,5-e][1,4]diazepin-5-one], which Ki is on record?
A: The Ki was 100 to 500 nM.

Q: How did the Ki turn out when `CCNc1ncc2c(n1)N(C)CCN(c1cccc(OCCN3CCOCC3)c1)C2=O` [Example 440, 2-(ethylamino)-9-methyl-6-(3-(2-morpholinoethoxy)phenyl)-6,7,8,9-tetrahydro-5H-pyrimido[4,5-e][1,4]diazepin-5-one] was run?
A: Its Ki is 500 to 3000 nM.

Q: `CSc1ncc2c(n1)N(C)CCN(c1cccc(CCO)c1)C2=O` [Example 36, 6-(3-(2-hydroxyethyl)phenyl)-9-methyl-2-(methylthio)-6,7,8,9-tetrahydro-5H-pyrimido[4,5-e][1,4]diazepin-5-one] was tested. Which Ki did it give?
A: The Ki was > 3000 nM.

Q: `CCNc1ncc2c(n1)N(C)CCN(c1cccc(-n3cc(CNC)cn3)c1)C2=O` [Example 185, 2-(ethylamino)-9-methyl-6-(3-(4-((methylamino)methyl)-1H-pyrazol-1-yl)phenyl)-6,7,8,9-tetrahydro-5H-pyrimido[4,5-e][1,4]diazepin-5-one] was tested. Which Ki did it give?
A: The Ki was 100 to 500 nM.

Q: How did the Ki turn out when `CNCC[C@H](Oc1ccc(CN2CCN(C)c3nc(OC)ncc3C2=O)c(C)c1)c1cccs1` [Example 397, (S)-2-methoxy-9-methyl-6-(2-methyl-4-(3-(methylamino)-1-(thiophen-2-yl)propoxy)benzyl)-6,7,8,9-tetrahydro-5H-pyrimido[4,5-e][1,4]diazepin-5-one] was run?
A: The Ki was < 100 nM.

Q: Which Ki does the source give for `CNCC(Oc1ccccc1N1CCN(C)c2ncncc2C1=O)c1ccccc1` (stereo not shown) [Example 362, 9-methyl-6-(2-(2-(methylamino)-1-phenylethoxy)phenyl)-6,7,8,9-tetrahydro-5H-pyrimido[4,5-e][1,4]diazepin-5-one] here?
A: The Ki was > 3000 nM.

Q: How did the Ki turn out when `CSc1ncc2c(n1)N(C)CCN(c1cccc(COC(CCN(C)C(=O)OC(C)(C)C)c3cccs3)c1)C2=O` (stereo not shown) [Example 15, tert-butyl methyl(3-((3-(9-methyl-2-(methylthio)-5-oxo-5,7,8,9-tetrahydro-6H-pyrimido[4,5-e][1,4]diazepin-6-yl)benzyl)oxy)-3-(thiophen-2-yl)propyl) carbamate] was run?
A: Its Ki is > 3000 nM.

Q: Which Ki does the source give for `CCNc1ncc2c(n1)N(C)CCN(c1ccccc1OC(CCN(C)C(=O)OC(C)(C)C)c1ccccc1)C2=O` (stereo not shown) [Example 125, tert-butyl (3-(2-(2-(ethylamino)-9-methyl-5-oxo-5,7,8,9-tetrahydro-6H-pyrimido[4,5-e][1,4]diazepin-6-yl)phenoxy)-3-phenylpropyl)(methyl) carbamate] here?
A: Its Ki is > 3000 nM.

Q: How did the Ki turn out when `CCNc1ncc2c(n1)N(C)CCN(Cc1ccc(CNC)cc1)C2=O` [Example 202, 2-(ethylamino)-9-methyl-6-(4-((methylamino)methyl)benzyl)-6,7,8,9-tetrahydro-5H-pyrimido[4,5-e][1,4]diazepin-5-one] was run?
A: Its Ki is 500 to 3000 nM.
